From patent publication US6969593B2, “Method for the selective survival or selective growth of a target cell by the use of a conjugate, its use in therapeutics and/or diagnostics and the preparation of said conjugate” (priority 2000, dated 2005) come the findings set out here.

Structures are written as SMILES.

Type in all cases: cell-based, Escherichia coli
Assay [1] deals with TG1-fd Bla I7. Nature of the assay: Experiments with selective cultures: mixed culture, colonies counted on Tet dishes. Particulars: t = 2 hours; for Bacteria.ml^−1 TG1-fd Bla 17 / % TG1-fd Bla 17: Table 1 results 1; for Bacteria.ml^−1 TG1-fd Bla 17 / Bacteria.ml^−1 TG1-fd Bla I7: complex + or − according to label; for Bacteria.ml^−1 TG1-fd Bla 17: t=0 1.58E+06; for % TG1-fd Bla 17 / % TG1-fd Bla I7: mixture with MM294-pET26b45; for % TG1-fd Bla 17: t=0 20.8%. Here is the method:
(§1) 5 ml (OD=1) of the TG1-fd Bla I7 and the MM294-pET26b45 cultures are centrifuged (4000 RPM, 5 minutes) and twice washed in LB for finally being resolved in 5 ml sterile LB. Two cultures are mixed. 1 ml of this culture is diluted in 9 ml LB (5 erlenmeyers in parallell) and the necessary quantity of the ternary complex or the conjugate is added. During one hour at 37° C. incubation takes place whereafter penicilline is introduced in this culture medium (see table above) and agitation is performed during two hours at 37° C.
(§2) Sampling is made at the start and the finish of the reaction which is diluted and put on Tet or Kan boxes. The incubation takes place all night at 37° C. Calculation of the colonies is made the morning after.
(§3) Mixtures have been made of bacteria TG1-fd Bla […] and MM294-pET26b45. These mixtures have been brought into contact with the ternary complex and incubated during one hour by 37° C. to allow the triple complex to be formed on the bacteria. After this incubation penicillin is added in the culture medium and cultures grown in shaking suspensions for two hours at 37° C. Subsequently, these mixtures were plated on Tet dishes and Kan dishes and incubated overnight at 37° C. The next day, the number of colonies was counted.
(§4) The inventors have also been working on the optimisation of the initial number added in the test of the different bacteria.

In assay [2] the test system is MM294-pET26b45. Nature of the assay: Experiments with selective cultures: mixed culture, colonies counted on Kan dishes. Particulars: t = 2 hours, complex + or − according to label. Here is the method:
as §1, §2, §3, §4

Assay [3] deals with TG1-fd Bla I7. Nature of the assay: Spectrophotometric follow up of the cultures (optical density at 600 nm). Particulars: 200 and 800 mg.L^−1 of penicillin; with or without ternary complex according to label; 37° C. As to the method:
(§5) Cultures (15 ml, OD=1) of TG1-fd Bla I7 and of MM294-pET26b45 are centrifuged (4000 RPM, 5 minutes). The pellet is washed twice with LB and is resolved in 15 ml sterile LB. In all cases 1 ml of the culture is diluted in 9 ml LB (11 erlenmeyers). Then the necessary quantity of the triple complexes calculated for complete degradation of the penicillin in two hours incubation is added and inbucated one hour at 37° C. Then penicillin is introduced at the final concentrations as indicated in the table below and for two hours at 37° C.
(§6) A sample is made at the start and then every 30 minutes. The optical density is measured of the sample at 600 nm.
(§7) In the next step, the applicant determined the conditions where optimal measurements could be made. With the help of spectrophotometric techniques the evolution in the optical density of different cultures was followed. […]
(§8) These cultures were made in parallel with an increasing concentration of penicillin increasing in the culture medium from 0 mg.L^−1, 50 mg.L^−1, 100 mg.L^−1, 200 mg.L^−1, 400 mg.L^−1 to 800 mg.L^−1. The quantities of the ternary complex were calculated and adapted such that all the penicillin in the medium of culture were hydrolyzed in two hours. […]

Assay [4] concerns MM294-pET26b45. The assay is described as above. To be noted: 200 and 800 mg.L^−1 of penicillin; with or without triple complex according to label; 37° C. As to the method:
as §5, §6, §7, §8

`CC1(C)S[C@@H]2[C@H](NC(=O)Cc3ccccc3)C(=O)N2[C@H]1C(=O)O` [penicillin G]: the results for the “Bacteria.ml^−1 TG1-fd Bla 17” value in assay [1] ([Pen] 200 mg·L^−1) and in assay [1] ([Pen] 800 mg·L^−1) were 1 190 ppm and 1 500 ppm, respectively. The “% TG1-fd Bla 17” value in assay [1] ([Pen] 200 mg·L^−1) came out at 15.8%; in assay [1] ([Pen] 800 mg·L^−1) it was 8.9%. Moreover, the “Bacteria.ml^−1 TG1-fd Bla I7” value amounted to 351.2 ppm in assay [1] (Table 2 results 1, [Pen] 200 mg·L^−1, t=0 2.05E+07); 439.0 ppm in assay [1] (Table 2 results 1, [Pen] 800 mg·L^−1, t=0 2.05E+07); 48.2 ppm in assay [1] (Table 2 results 2, [Pen] 200 mg·L^−1, t=0 1.37E+08); 2.9 ppm in assay [1] (Table 2 results 2, [Pen] 800 mg·L^−1, t=0 1.37E+08). In addition, the “% TG1-fd Bla I7” value is recorded as 50.3% in assay [1] (Table 2 results 1, [Pen] 200 mg·L^−1, t=0 54.2%); 44.1% in assay [1] (Table 2 results 1, [Pen] 800 mg·L^−1, t=0 54.2%); 47.1% in assay [1] (Table 2 results 2, [Pen] 200 mg·L^−1, t=0 60.4%); 6.9% in assay [1] (Table 2 results 2, [Pen] 800 mg·L^−1, t=0 60.4%). Moreover, the “Bacteria.ml^−1 MM294-pET26b45” value is 1 667 ppm in assay [2] (Table 1 results 1, [Pen] 200 mg·L^−1, t=0 6.00E+06); 557 ppm in assay [2] (Table 1 results 1, [Pen] 800 mg·L^−1, t=0 6.00E+06); 410.4 ppm in assay [2] (Table 2 results 1, [Pen] 200 mg·L^−1, t=0 1.73E+07); 659.0 ppm in assay [2] (Table 2 results 1, [Pen] 800 mg·L^−1, t=0 1.73E+07); 82.2 ppm in assay [2] (Table 2 results 2, [Pen] 200 mg·L^−1, t=0 9.00E+07); 60.0 ppm in assay [2] (Table 2 results 2, [Pen] 800 mg·L^−1, t=0 9.00E+07). The “evolution of optical density of the culture during time” value in assay [3] and in assay [4] was “tendency to decrease” each time.
